Laboratory results as given in the NIST ThermoML archive (doi:10.1016/j.tca.2011.02.043).

Tests used:
[1] = DTA
[2] = Molar enthalpy of transition or fusion; settings: DSC
[3] = molar heat capacity at constant pressure; settings: 101.33 kPa, Small sample (50 mg) DSC

[BH4-].[Li+] [lithium tetrahydroborate]
Settings | Molar enthalpy of transition or fusion, [2] [kcal/mol] | Triple point temperature, [1] [K]
Crystal 1 | 1.96 | 553
Crystal 2 | 1.21 | 386.6

[3]
Settings | molar heat capacity at constant pressure [J/K/mol]
298 K, Crystal 2 | 81.51
310 K, Crystal 2 | 84.51
320 K, Crystal 2 | 87.33
330 K, Crystal 2 | 89.53
340 K, Crystal 2 | 91.21
350 K, Crystal 2 | 92.47
360 K, Crystal 2 | 95.46
370 K, Crystal 2 | 101.2
380 K, Crystal 2 | 106.02
410 K, Crystal 1 | 91.06
420 K, Crystal 1 | 91.83
430 K, Crystal 1 | 93.09
440 K, Crystal 1 | 94.12
450 K, Crystal 1 | 95.43
460 K, Crystal 1 | 96.7
470 K, Crystal 1 | 97.95
480 K, Crystal 1 | 99.14
490 K, Crystal 1 | 100.69
500 K, Crystal 1 | 101.9
510 K, Crystal 1 | 103.3
520 K, Crystal 1 | 104.78
